What was measured:
redroot pigweed (AMARE) [1] = experiment: Test 22 growth chamber, postemergence; format: in vivo, Amaranthus retroflexus; conditions: 25 DAA
Protocol: (§1) A test was conducted to evaluate the effects on winter barley (HORVW, Hordeum vulgare L.), winter wheat (TRZAW, Triticum aestivum L.), and several weed species of mixtures of Compound 2 with the commercial herbicides (2,4-dichlorophenoxy)acetic acid (2,4-D) and (4-chloro-2-methylphenoxy)acetic acid (MCPA), auxin mimics. […] Plants were treated postemergence at the 2-4 leaf growth stage, except KCHSC, SASKR and STEME which were in the 4-8 leaf growth stage. Each treatment was replicated one time. […] Plants were watered as needed. […] Results are from single replicates.

wild mustard (SINAR) = experiment: Test 22 growth chamber, postemergence; format: in vivo, Sinapis arvensis; conditions: 25 DAA
Protocol: as §1

[2] = test system: common lambsquarters (CHEAL); experiment: Test 23 growth chamber, postemergence; format: in vivo, Chenopodium album; conditions: 21 DAA
Protocol: as §1, with “stage,” for “stage, except KCHSC, SASKR”, “each” for “STEME which were in the 4-8 leaf growth stage. Each”, “three times.” for “one time.”, “means of the three” for “from single”

redroot pigweed (AMARE) [3] = experiment: Test 7 field trial, preemergence; format: in vivo, Amaranthus retroflexus
Protocol: (§2) Plots were 7.6 m long by 3.0 m wide with rows spaced 76 cm apart. Seeds were spaced 15 cm apart within the rows. The field was managed using conventional tillage practices. […] Wild radish was evaluated 14 and 28 days after application. […] Results are the means of the three replicates.

morningglory (IPOSS) = experiment: Test 7 field trial, preemergence; format: in vivo, Ipomoea L. spp.
Protocol: as §2

common ragweed (AMBEL) = experiment: Test 14 field trial, preemergence, growth as percent of control; format: in vivo, Ambrosia artemisiifolia
Excerpt: Corn seeds (hybrid ‘Pioneer 31G96 RR’) were planted in mid spring season, 3.8 cm deep in a clay loam soil having 2% organic matter and a pH of 6.6. Plots were 6.1 m long by 3.0 m wide with rows spaced 76 cm apart. Seeds were spaced 15 cm apart within the rows. The field was managed using conventional tillage practices. […] Yellow nutsedge was only evaluated 19 and 28 days after application, and ivyleaf morningglory could only be evaluated 28 days after application. […] Results are the means of the three replicates. This growth inhibition data was converted to results in the form of “plant growth as a percent of control plant growth” using the calculation “100 minus growth inhibition”. […] For “growth as a percent of control” data, Colby's Equation calculates the expected additive effect of herbicidal mixtures having two active ingredients as follows:
Ga+b=GaGb/100 • wherein Ga+b is the growth as a percent of control of plants treated with the mixture expected from additive contribution of the individual components, • Ga is the observed growth as a percent of control of plants treated with the first active ingredient at the same use rate as in the mixture, and • Gb is the observed growth as a percent of control of plants treated with the second active ingredient at the same use rate as in the mixture. For mixtures having three active ingredients, Colby's Equation to calculate the expected additive effect of herbicidal mixtures is as follows:
Ga+b+c=GaGbGc/10,000 • wherein Ga and Gb are as defined above and • Ga+b+c is the growth as a percent of control of plants treated with the mixture expected from additive contribution of the individual components, and • Gc is the observed growth as a percent of control of plants treated with the third active ingredient at the same use rate as in the mixture. When these two forms of Colby's Equation are used, if the observed effects on weeds are less than the expected values, the mixture is synergistic.

[4] = test system: Florida beggarweed (DEDTO); experiment: Test 12 field trial, preemergence; format: in vivo, Desmodium tortuosum; set-up: scale not given here; conditions: Cpd 2 or Cpd 1 62 g a.i./ha, Diuron 2000 g a.i./ha
Excerpt: In early-mid spring season, corn seeds (hybrid ‘Pioneer 3041’) were planted 5 cm deep and sugarcane nodes (variety RB-72.454) were planted 10 cm deep in separate plots in a clay soil having 2.6% organic matter and a pH of 5.6. Plots were 24 m long by 1.5 m wide with rows spaced 80 cm (corn) or 140 cm (sugarcane) apart. Corn seeds were spaced 15 cm apart and sugarcane nodes were spaced 10 cm apart within the rows. At the same time, weed seeds were broadcast over the surface of separate plots without a crop, one weed species per plot. The weed plots were rotary tilled to incorporate the weed seeds to a variety of depths. The field was managed using conventional tillage practices.

redroot pigweed (AMARE) [5] = experiment: Test 2 field trial, preemergence; format: in vivo, Amaranthus retroflexus; set-up: scale not given here
Excerpt: Corn seeds (hybrid ‘Pioneer 31G96’) were planted in mid spring season, 3.8 cm deep in a clay loam soil having 2% organic matter and a pH of 6.6. Plots were 6.1 m long by 3.0 m wide with rows spaced 76 cm apart. Seeds were spaced 15 cm apart within the rows. The field was managed using conventional tillage practices. […] A few of the weed species could not be evaluated at every timing. […] Results are the means of the three replicates.

[6] = 2,4-D or MCPA alone 250 g a.i./ha
[7] = 28 DAA, g a.i./ha: Cpd 2 25, Atrazine 250
[8] = 28 DAA, g a.i./ha: Cpd 2 50, Atrazine 500
[9] = 28 DAA, g a.i./ha: Cpd 2 75, Atrazine 750
[10] = 28 DAA, g a.i./ha: Cpd 2 100, Atrazine 1000
[11] = 28 DAA, g a.i./ha: Cpd 2 150, Atrazine 1500
[12] = 55 DAA, g a.i./ha: Cpd 2 25, Atrazine 250
[13] = 55 DAA, g a.i./ha: Cpd 2 50, Atrazine 500
[14] = 55 DAA, g a.i./ha: Cpd 2 75, Atrazine 750
[15] = 55 DAA, g a.i./ha: Cpd 2 100, Atrazine 1000
[16] = 55 DAA, g a.i./ha: Cpd 2 150, Atrazine 1500

O=C(O)COc1ccc(Cl)cc1Cl [2,4-D, (2,4-dichlorophenoxy)acetic acid]
Postemergence AMARE Obs (redroot pigweed (AMARE) [1]; [6]): 70 | Postemergence SINAR Obs (wild mustard (SINAR); [6]): 75 | Postemergence CHEAL Obs [2, 6]: 58

CCc1cccc(C)c1N(C(=O)CCl)[C@@H](C)COC [S-Metolachlor, S-metolachlor, reference compound]
AMARE Obs (redroot pigweed (AMARE) [3]; 14 DAA, 1000 g a.i./ha): 97% | AMARE Obs (redroot pigweed (AMARE) [3]; 28 DAA, 1000 g a.i./ha): 78% | AMARE Obs (redroot pigweed (AMARE) [3]; 62 DAA, 1000 g a.i./ha): 15% | IPOSS Obs (morningglory (IPOSS); 14 DAA, 1000 g a.i./ha): 48% | IPOSS Obs (morningglory (IPOSS); 28 DAA, 1000 g a.i./ha): 50% | IPOSS Obs (morningglory (IPOSS); 62 DAA, 1000 g a.i./ha): 13% | Obs growth % of control (common ragweed (AMBEL); 19 DAA, 1870 g a.i./ha): 100% | Obs growth % of control (common ragweed (AMBEL); 28 DAA, 1870 g a.i./ha): 75% | Obs growth % of control (common ragweed (AMBEL); 56 DAA, 1870 g a.i./ha): 93%

Nc1nc(C2CC2)nc(C(=O)O)c1Cl [Compound 1, 6-amino-5-chloro-2-cyclopropyl-4-pyrimidinecarboxylic acid]
DEDTO Obs ([4]; 15 DAA): 95 | DEDTO Obs ([4]; 29 DAA): 75 | DEDTO Obs ([4]; 48 DAA): 60 | DEDTO Obs ([4]; 61 DAA): 60

CCNc1nc(Cl)nc(NC(C)C)n1 [Atrazine, atrazine, reference compound]
AMARE Obs (redroot pigweed (AMARE) [5]; [7]): 72 | AMARE Obs (redroot pigweed (AMARE) [5]; [8]): 97 | AMARE Obs (redroot pigweed (AMARE) [5]; [9]): 90 | AMARE Obs (redroot pigweed (AMARE) [5]; [10]): 100 | AMARE Obs (redroot pigweed (AMARE) [5]; [11]): 100 | AMARE Obs (redroot pigweed (AMARE) [5]; [12]): 95 | AMARE Obs (redroot pigweed (AMARE) [5]; [13]): 99 | AMARE Obs (redroot pigweed (AMARE) [5]; [14]): 100 | AMARE Obs (redroot pigweed (AMARE) [5]; [15]): 100 | AMARE Obs (redroot pigweed (AMARE) [5]; [16]): 100

COC(=O)c1nc(C2CC2)nc(N)c1Cl [Compound 2, methyl 6-amino-5-chloro-2-cyclopropyl-4-pyrimidinecarboxylate]
AMARE Obs (redroot pigweed (AMARE) [5]; [7]): 30 | AMARE Obs (redroot pigweed (AMARE) [5]; [8]): 90 | AMARE Obs (redroot pigweed (AMARE) [5]; [9]): 98 | AMARE Obs (redroot pigweed (AMARE) [5]; [10]): 93 | AMARE Obs (redroot pigweed (AMARE) [5]; [11]): 82 | AMARE Obs (redroot pigweed (AMARE) [5]; [12]): 100 | AMARE Obs (redroot pigweed (AMARE) [5]; [13]): 100 | AMARE Obs (redroot pigweed (AMARE) [5]; [14]): 100 | AMARE Obs (redroot pigweed (AMARE) [5]; [15]): 100 | AMARE Obs (redroot pigweed (AMARE) [5]; [16]): 100 | AMARE Obs (redroot pigweed (AMARE) [3]; 14 DAA, 125 g a.i./ha): 97% | AMARE Obs (redroot pigweed (AMARE) [3]; 14 DAA, 250 g a.i./ha): 100% | AMARE Obs (redroot pigweed (AMARE) [3]; 14 DAA, 500 g a.i./ha): 100% | AMARE Obs (redroot pigweed (AMARE) [3]; 28 DAA, 125 g a.i./ha): 92% | AMARE Obs (redroot pigweed (AMARE) [3]; 28 DAA, 250 g a.i./ha): 100% | AMARE Obs (redroot pigweed (AMARE) [3]; 28 DAA, 500 g a.i./ha): 100% | AMARE Obs (redroot pigweed (AMARE) [3]; 62 DAA, 125 g a.i./ha): 80% | AMARE Obs (redroot pigweed (AMARE) [3]; 62 DAA, 500 g a.i./ha): 100% | IPOSS Obs (morningglory (IPOSS); 14 DAA, 125 g a.i./ha): 100% | IPOSS Obs (morningglory (IPOSS); 14 DAA, 250 g a.i./ha): 100% | IPOSS Obs (morningglory (IPOSS); 14 DAA, 500 g a.i./ha): 100% | IPOSS Obs (morningglory (IPOSS); 28 DAA, 125 g a.i./ha): 100% | IPOSS Obs (morningglory (IPOSS); 28 DAA, 250 g a.i./ha): 100% | IPOSS Obs (morningglory (IPOSS); 28 DAA, 500 g a.i./ha): 100% | IPOSS Obs (morningglory (IPOSS); 62 DAA, 125 g a.i./ha): 100% | IPOSS Obs (morningglory (IPOSS); 62 DAA, 500 g a.i./ha): 100% | DEDTO Obs ([4]; 15 DAA): 100 | DEDTO Obs ([4]; 29 DAA): 70 | DEDTO Obs ([4]; 48 DAA): 80 | DEDTO Obs ([4]; 61 DAA): 60 | Obs growth % of control (common ragweed (AMBEL); 19 DAA, 75 g a.i./ha): 75% | Obs growth % of control (common ragweed (AMBEL); 19 DAA, 100 g a.i./ha): 55% | Obs growth % of control (common ragweed (AMBEL); 28 DAA, 75 g a.i./ha): 20% | Obs growth % of control (common ragweed (AMBEL); 28 DAA, 100 g a.i./ha): 15% | Obs growth % of control (common ragweed (AMBEL); 56 DAA, 75 g a.i./ha): 17% | Obs growth % of control (common ragweed (AMBEL); 56 DAA, 100 g a.i./ha): 12% | Postemergence AMARE Obs (redroot pigweed (AMARE) [1]; Cpd 2 alone 4 g a.i./ha): 55 | Postemergence AMARE Obs (redroot pigweed (AMARE) [1]; Cpd 2 alone 8 g a.i./ha): 65 | Postemergence AMARE Obs (redroot pigweed (AMARE) [1]; Cpd 2 alone 16 g a.i./ha): 65 | Postemergence SINAR Obs (wild mustard (SINAR); Cpd 2 alone 4 g a.i./ha): 60 | Postemergence SINAR Obs (wild mustard (SINAR); Cpd 2 alone 8 g a.i./ha): 65 | Postemergence SINAR Obs (wild mustard (SINAR); Cpd 2 alone 16 g a.i./ha): 65 | Postemergence CHEAL Obs ([2]; Cpd 2 alone 4 g a.i./ha): 53 | Postemergence CHEAL Obs ([2]; Cpd 2 alone 8 g a.i./ha): 55 | Postemergence CHEAL Obs ([2]; Cpd 2 alone 16 g a.i./ha): 55
